The values that follow come from patent publication US9169231B2, “Anti-obesity agent comprising compound containing benzotropolone ring” (SUNTORY HOLDINGS LIMITED, priority 2009, dated 2015).

Like-named read-outs stand apart in the source and are kept apart here.

What all share (type): biochemical
Assay [1] concerns the target T1, porcine pancreatic lipase (Sus scrofa, UniProt P00591).
T1 construct: purchased Sigma-Aldrich Corp
T1 sequence (P00591 1-450): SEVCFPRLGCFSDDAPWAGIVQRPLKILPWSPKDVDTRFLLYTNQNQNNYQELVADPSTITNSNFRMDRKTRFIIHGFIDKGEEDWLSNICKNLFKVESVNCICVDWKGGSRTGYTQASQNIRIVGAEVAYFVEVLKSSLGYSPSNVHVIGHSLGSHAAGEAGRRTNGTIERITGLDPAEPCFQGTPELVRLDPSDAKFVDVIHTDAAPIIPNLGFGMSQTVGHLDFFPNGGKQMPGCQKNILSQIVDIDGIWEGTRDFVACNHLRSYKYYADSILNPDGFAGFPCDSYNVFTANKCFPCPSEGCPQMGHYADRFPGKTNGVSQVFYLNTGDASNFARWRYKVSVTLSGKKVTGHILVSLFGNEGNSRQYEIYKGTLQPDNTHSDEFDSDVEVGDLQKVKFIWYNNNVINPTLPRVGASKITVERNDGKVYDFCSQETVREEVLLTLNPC
The assay is described as follows: Measurement of lipase inhibitory activity (Example 6; 4-MUO substrate, fluorescence). On the procedure:
The measurement of lipase activity was performed by using as a substrate the oleate ester of fluorescent 4-methylumbelliferone (4-MUO; Sigma-Aldrich Corp.) to measure the fluorescence of 4-methylumbelliferone produced by a reaction. […] The following were subjected to an enzymatic measurement: the substrate 4-MUO which was dissolved into a 0.1M DMSO solution followed by dilution of the solution 4000-fold with the above buffer; and as a lipase, porcine pancreatic lipase (Sigma-Aldrich Corp.) which was prepared as a 400 U/ml solution by using the above buffer likewise.
(§1) An enzymatic reaction was initiated by the following steps under 25° C. condition: adding to a 96-well microplate 50 μl of a 4-MUO buffer solution and 25 μl of distilled water (or an aqueous sample solution) for each well; mixing them; and then adding 25 μl of a lipase buffer solution to each well. After a 30-minute reaction, 100 μl of a 0.1M citric acid buffer (pH4.2) was added to terminate the reaction, and the fluorescence of 4-methylumbelliferone (excitation wavelength: 355 nm, fluorescence wavelength: 460 nm) produced by the reaction was measured with a fluorescence plate reader (Fluoroskan Asent CF from Labsystems, Inc.)

The next assay concerns the target alfa-glucosidase. In words: Measurement of alfa-glucosidase inhibitory activity (Example 11; p-nitrophenyl-alfa-D-glucopyranoside, A405). On the procedure: A […] sodium phosphate buffer was prepared by mixing a 0.1M NaH2PO4-2H2O and a 0.1M Na2HPO4.12H2O and adjusting the mixture to pH7.0, and thereto 2 g/L of bovine serum albumin (Nacalai Tesque, Inc., F-V, pH5.2, 96% purity) and 0.2 g/L of NaN3 (Nacalai Tesque, Inc., a special grade reagent) were added. To prepare an enzyme solution, alfa-glucosidase (Wako Pure Chemical Industries, Ltd., yeast-derived, 100 units/mg) was dissolved in the above buffer so as to achieve 0.5 units/mg protein/ml (100 μg/20 ml). To prepare a substrate solution, p-nitrophenyl-alfa-D-glucopyranoside (Nacalai Tesque, Inc., a special grade reagent) was dissolved in the above buffer so as to achieve 5 mM concentration (7.525 mg/5 ml).
Among the samples used for the assays, epigallocatechin-3-O-gallate (Compound 13: EGCG), a positive control, was a product from Wako Pure Chemical Industries, Ltd., and Compounds 1, 3, 4, 5, 11, 12, 14, and 15 were products that were synthesized and purified in Example 1, 2, or 7.
These samples were adjusted so as to obtain 10 mg/ml of DMSO and the solution was diluted 2-fold in 6 steps. Using a 96-well microplate, 45 μL of the enzyme solution was added to 10 μL of the sample solution. After preincubation at 37° C. for 5 minutes, 45 μL of the substrate solution was added and absorbance at 405 nm (A405 nm) was measured. After incubation at 37° C. for 5 minutes, the absorbance A405 nm was measured. Percent inhibition was calculated as a difference in A405 nm from a solution in which only DMSO was added as a control instead of a sample, and two consecutive measurements were performed for activity of each compound.

The target in assay [2] is T2, porcine pancreatic lipase (Type VI-S) (Sus scrofa, UniProt P00591).
T2 construct: purchased Sigma-Aldrich Corp. Type VI-S
T2 sequence (P00591 1-450): T1 sequence (P00591 1-450)
The assay is described as follows: Measurement of lipase activity (Example 10; 4-MUO substrate 7.5 μM, increased DMSO). Conditions: Example 10 method; for IC50: substrate 7.5 μM, 25° C., 30-minute reaction, read-out: Lipase Inhibitory Activity per Mole IC50. On the procedure: The measurement of lipase activity was performed by using as a substrate the oleate ester of fluorescent 4-methylumbelliferone (4-MUO; Sigma-Aldrich Corp.) to measure the fluorescence of 4-methylumbelliferone produced by a reaction. In the measurement, 13 mM Tris-HCl (pH8.0) containing 150 mM NaCl and 1.36 mM CaCl2 was used as a buffer. The following were subjected to an enzymatic measurement: the substrate 4-MUO which was dissolved into a 0.01M DMSO solution followed by dilution of the solution 667-fold with the above buffer; and as a lipase, porcine pancreatic lipase (Sigma-Aldrich Corp.: Type VI-S) which was prepared as a 400 U/ml solution by using the above buffer likewise.
as §1, with “μl of 4-MUO buffer” for “μl of a 4-MUO buffer”, “water (or aqueous sample” for “water (or an aqueous sample”, “each well. […] After a” for “each well. After a”, “μl of 0.1M citric” for “μl of a 0.1M citric”, “from Labsystems, Inc.).” for “from Labsystems, Inc.)”
The inhibitory activities of test samples were determined as IC50 (μM), a sample […] which produces 50% inhibition, relative to the activity of a control (distilled water).

[3] abbreviates: Example 6 method, substrate 12.5 μM, 25° C., 30-minute reaction, read-out: Lipase Inhibitory Activity per mole IC50.

Broadly, the IC50 is the concentration that inhibits the measured activity by half. Take `O=C(O[C@@H]1Cc2c(O)cc(O)cc2O[C@@H]1c1cc(O)c(=O)c2c(O)c(O)cc([C@@H]3Oc4cc(O)cc(O)c4C[C@@H]3O)c2c1)c1cc(O)c(=O)c2c(O)c(O)cc([C@H]3Oc4cc(O)cc(O)c4C[C@H]3O)c2c1` (stereo in doubt) [Compound 6, theadibenzotropolone A]: the IC50 in assay [1] (setting [3]) stood at 178 nM.

With `O=C(O[C@@H]1Cc2c(O)cc(O)cc2O[C@@H]1c1cc(O)c(=O)c2c(O)c(O)cc([C@@H]3Oc4cc(O)cc(O)c4C[C@H]3OC(=O)c3cc(O)c(O)c(O)c3)c2c1)c1cc(O)c(=O)c2c(O)c(O)cc([C@H]3Oc4cc(O)cc(O)c4C[C@H]3OC(=O)c3cc(O)c(O)c(O)c3)c2c1` (stereo in doubt) [Compound 7, theaflavin digallate trimer 1 (TFdiGA-tri1)], the half-maximal inhibitory concentration (IC50) in assay [1] (setting [3]) worked out at 135 nM.

On to `O=C(O[C@@H]1Cc2c(O)cc(O)cc2O[C@@H]1c1cc(O)c(=O)c2c(O)c(O)cc([C@@H]3Oc4cc(O)cc(O)c4C[C@H]3OC(=O)c3cc(O)c(=O)c4c(O)c(O)cc([C@H]5Oc6cc(O)cc(O)c6C[C@H]5OC(=O)c5cc(O)c(O)c(O)c5)c4c3)c2c1)c1cc(O)c(O)c(O)c1` (stereo in doubt) [Compound 8, theaflavin digallate trimer 2 (TFdiGA-tri2)], for which the IC50 in assay [1] (setting [3]) amounted to 138 nM.

For `O=c1c(O)cccc2cc(O)c(O)c(O)c12` [Compound 1, purprogallin], the half-maximal inhibitory concentration (IC50) in assay [1] (setting [3]) stood at 413 nM; on alfa-glucosidase (37° C., 5 minutes incubation), 1240 µM.

Consider `O=C(O)c1cc(O)c(=O)c2c(O)c(O)c(O)cc2c1` [Compound 2, purprogallin carboxylic acid], for which 4160 nM corresponded to half-maximal inhibition in assay [1] (IC50).

With `O=C(O[C@@H]1Cc2c(O)cc(O)cc2O[C@@H]1c1cc(=O)c(O)c2c(O)c(O)c(O)cc2c1)c1cc(O)c(O)c(O)c1` [Compound 4, epitheaflagallin-3-O-gallate, reference compound], the half-maximal inhibitory concentration (IC50) in assay [2] stood at 125 nM; against alfa-glucosidase (37° C., 5 minutes incubation) it was 180 µM.

For `O=C(O[C@@H]1Cc2c(O)cc(O)cc2O[C@@H]1c1ccc(O)c(O)c1)c1cc(O)c(=O)c2c(O)c(O)cc([C@H]3Oc4cc(O)cc(O)c4C[C@H]3OC(=O)c3cc(O)c(O)c(O)c3)c2c1` [Compound 5, theaflavate A], the IC50 in assay [1] (setting [3]) stood at 202 nM; against alfa-glucosidase (37° C., 5 minutes incubation), 116 µM.

Regarding `O=C(O)c1cc(O)c(=O)c2c(O)c(O)cc([C@H]3Oc4cc(O)cc(O)c4C[C@H]3O)c2c1` [Compound 9, epitheaflavic acid], the half-maximal inhibitory concentration (IC50) in assay [1] (setting [3]) was 4630 nM.

On to `O=c1c(O)cccc2c([C@H]3Oc4cc(O)cc(O)c4C[C@H]3O)cc(O)c(O)c12` [Compound 10, theaflavanin], for which the concentration for half-maximal inhibition (IC50) in assay [1] (setting [3]) worked out at 984 nM.

Consider `O=C(O)c1cc(O)c(=O)c2c(O)c(O)cc([C@H]3Oc4cc(O)cc(O)c4C[C@H]3OC(=O)c3cc(O)c(O)c(O)c3)c2c1` [Compound 11, epitheaflavic acid-3-O-gallate], for which the IC50 stood at 266 nM in assay [1] (setting [3]) and 287 µM against alfa-glucosidase (37° C., 5 minutes incubation).

For `O=C(O[C@@H]1Cc2c(O)cc(O)cc2O[C@@H]1c1ccc(O)c(O)c1)c1cc(O)c(=O)c2c(O)c(O)c(O)cc2c1` [Compound 12, (2R,3R)-2-(3,4-dihydroxyphenyl)-5,7-dihydroxychroman-3-yl2,3,4,6-tetrahydroxy-5-oxo-5H-benzo[7]annulen-8-carboxylate], the IC50 in assay [1] (setting [3]) stood at 207 nM; in assay [2] it was 96 nM; against alfa-glucosidase (37° C., 5 minutes incubation), 159 µM. In assay [2], the “Lipase inhibitory activity (in words, compared with EGCG)” value was “stronger activity than a positive control, EGCG”. The “alfa-glucosidase inhibitory activity (in words)” value with alfa-glucosidase is “particularly strong activity”.

Consider `O=C(O[C@@H]1Cc2c(O)cc(O)cc2O[C@@H]1c1cc(O)c(O)c2c(=O)c(O)cccc12)c1cc(O)c(O)c(O)c1` [Compound 14, theaflavanin 3-O-gallate], for which the “Lipase inhibitory activity (in words, compared with EGCG)” value in assay [2] was “stronger activity than a positive control, EGCG”. In addition, the half-maximal inhibitory concentration (IC50) in assay [2] worked out at 168 nM; at alfa-glucosidase (37° C., 5 minutes incubation), 196 µM. The “alfa-glucosidase inhibitory activity (in words)” value in the assay with alfa-glucosidase is listed as “particularly strong activity”.

Turning to `O=C(O[C@@H]1Cc2c(O)cc(O)cc2O[C@@H]1c1cc(O)c(=O)c2c(O)c(O)ccc2c1)c1cc(O)c(O)c(O)c1` [Compound 15, EGCG-catechol], in assay [2], the “Lipase inhibitory activity (in words, compared with EGCG)” value was “stronger activity than a positive control, EGCG” and the half-maximal inhibitory concentration (IC50) amounted to 104 nM. The compound further displayed an IC50 on alfa-glucosidase (37° C., 5 minutes incubation) of 103 µM.

In the case of `Oc1cccc(O)c1O` [pyrogallol, reference compound], in assay [1] (setting [3]), the IC50 was 17300 nM.

With “(−)-epigallocatechin-3-O-gallate [Compound 13, reference compound]”, the IC50 in assay [1] (setting [3]) came to 349 nM; in assay [2] it was 349 nM; against alfa-glucosidase (37° C., 5 minutes incubation), 485 µM.

With “epitheaflagallin [Compound 3, reference compound]”, the IC50 in assay [2] came to 956 nM. The “alfa-glucosidase inhibitory activity IC50” value at alfa-glucosidase (37° C., 5 minutes incubation) is “No”.
